{"source": "patent US20250213592A1", "about": "“PHARMACEUTICAL COMPOSITION COMPRISING CURCUMIN AND GINSENOSIDE, AND FORMULATION THEREOF” (CORESTEMCHEMON INC., priority 2022, published 2025)", "key": {"SNU-C1 [1]": {"system": "SNU-C1", "assay": "Cell mobility (transwell) of irradiated SNU-C1 cells", "format": "cell-based, human", "conditions": "SNU-C1, 10 Gy, 10 μM, 24 hours", "protocol": "(§1) Cell mobility was measured using a 24 mm transwell with […]. After stabilizing the cells irradiated with 10 Gy of radiation for 24 hours, the cells were suspended in a medium and seeded in the upper chamber of the transwell, and the lower chamber was filled with a medium containing 10% fetal bovine serum (FBS) and 10 μM butyric acid (BA), ginsenosides Rh1, Rh2, Ro, Rb1, curcumin (CU), and sucralfate (SCF) either alone or in combination, and culturing was performed. After 24 hours of culture, the downside of the transwell was stained with crystal violet dye, and the stained cells were counted by observing them with an inverted microscope."}, "[2]": {"system": "human dermal fibroblasts (HDF)", "assay": "Cell mobility (transwell) of irradiated human dermal fibroblasts", "format": "cell-based", "conditions": "10 μM, alone or in combination", "protocol": "as §1"}, "HUVEC": {"system": "HUVEC", "assay": "Vascular endothelial cell tube formation after irradiation", "format": "cell-based, human", "conditions": "irradiated HUVEC, 10 μM, alone or in combination", "protocol": "After irradiating human umbilical endothelial cells (HUVEC) with 10 Gy of radiation, the cells were seeded on a matrigel-coated u-slide, and were treated with 10 μM of curcumin (CU), butyric acid (BA), sucralfate (SCF), ginsenosides Rh1, Rh2, Rb1, or Ro either alone or in combination.\nIt was investigated whether a treatment with curcumin (CU), butyric acid (BA), sucralfate (SCF), and ginsenoside Rh1 (Rh1) alone or in combination restored the function of HUVEC cells damaged by radiation."}, "HCT116 [3]": {"system": "HCT116", "assay": "Cell mobility (transwell) of irradiated HCT116 cells", "format": "cell-based, human", "conditions": "HCT116, 10 Gy, 10 μM, 24 hours", "protocol": "as §1\nThe experiment was conducted using the same manner as Experimental Example 3, except that the effective agents for treatment were a combination of curcumin, butyric acid, sucralfate, and ginsenoside."}, "HCT116 [4]": {"system": "HCT116", "assay": "Cell viability (Cell Counting Kit-8) of irradiated HCT116 cells", "format": "cell-based, human", "conditions": "HCT116, 10 Gy, 48 hours", "protocol": "(§2) Human colon cancer cell lines (HCT116 and SNU-C1), a human dermal fibroblast cell line and a human keratinocyte cell line (HaCaT) were cultured in Dulbecco's modified eagles medium-high glucose (DMEM) containing 10% fetal bovine serum (FBS), 100 units/mL penicillin, and 100 μg/mL streptomycin. A Human umbilical vascular endothelial cell line (HUVEC) was cultured in a vascular cell basal medium (ATCC) containing Endothelial cell growth kit-VEGF (ATCC). All of the above cells were cultured in a 5% CO2 cell incubator at 37° C.\n(§3) Cell viability test was performed using Cell Counting Kit-8. HCT116 and SNU-C1 cell lines, which are colon cancer cells, were seeded on 60 mm culture dishes and cultured, and then irradiated with 10 Gy of radiation. The cells were harvested, seeded on 96-well culture plates, and incubated, and then the cells were treated with butyric acid (BA), ginsenosides Rh1, Rh2, Ro, Rb1, and curcumin (CU) at concentrations of 5, 10, or 50 μM, respectively. After 48 hours, cell viability was analyzed using Cell Counting Kit-8 and a microplate reader.\n(§4) In order to investigate the effects of curcumin (CU), butyric acid (BA), and ginsenoside on the decreased cell viability due to irradiation, HCT116 and SNU-C1 cells were treated with curcumin, butyric acid, ginsenoside Rh1, Rh2, Ro, or Rb1 at concentrations of 5, 10, and 50 μM, respectively, and the viability of each cell was measured (FIGS. 1 and 2)."}, "SNU-C1 [5]": {"system": "SNU-C1", "assay": "Cell viability (Cell Counting Kit-8) of irradiated SNU-C1 cells", "format": "cell-based, human", "conditions": "SNU-C1, 10 Gy, 48 hours", "protocol": "as §2, §3, §4"}, "skin of irradiated mice": {"system": "skin of irradiated mice", "conditions": "cited from earlier work"}, "[6]": {"system": "intestinal epithelial cells", "conditions": "cited from earlier work"}, "[7]": {"system": "radiation proctitis model mouse", "assay": "Radiation proctitis model mouse: pathological morphology of colon and rectal tissue (H&E)", "format": "in vivo", "conditions": "27 Gy, intrarectal, 14 days, vs irradiated group (IR)", "protocol": "by administration of combination drug to proctitis model mouse C57BL/6 mice (5 weeks old, female) were irradiated with 27 Gy of radiation, and then divided into test groups as shown in Table 4 and FIG. 13. From the next day, samples prepared at concentrations as shown in Table 5 and FIG. 14 (formulated using the method of Example 1) were administered intrarectally at 2-3 day intervals for a total of 6 times (FIG. 16).\nThe efficacy of the treated samples was confirmed 14 days after the final radiation. In this case, except for the non-irradiated group (n=5), all test treatment groups were conducted with 7 mice per group. A flexible plastic tube was inserted into the rectum for administration, and a formulation containing approximately 50 μl of the compound was administered per mouse at a time.\nIn addition, pathological morphological analysis of the intestinal tissue was performed by observing the morphology of each treatment group through a microscope after performing H&E staining.\nSpecifically, the extracted organs were fixed in 10% formalin and paraffin blocks were created (STP120 Spin tissue Processor, Myr). Thereafter, sections were mounted on slides using a microtome (Finesse ME Microtome, Thermo Shandon), dried, deparaffinized and hydrated to create tissue slides. […]"}, "[8]": {"conditions": "5 μM or 10 μM, vs irradiated group"}}, "data": [{"compound": "CC(C)=CCC[C@](C)(O[C@@H]1O[C@H](CO[C@@H]2O[C@H](CO)[C@@H](O)[C@H](O)[C@H]2O)[C@@H](O)[C@H](O)[C@H]1O)[C@H]1CC[C@]2(C)[C@@H]1[C@H](O)C[C@@H]1[C@@]3(C)CC[C@H](O[C@@H]4O[C@H](CO)[C@@H](O)[C@H](O)[C@H]4O[C@@H]4O[C@H](CO)[C@@H](O)[C@H](O)[C@H]4O)C(C)(C)[C@@H]3CC[C@]12C", "note": "[Rb1, ginsenoside Rb1]", "values": [{"measurement": "cell mobility rate compared to the irradiated group", "setting": "SNU-C1 [1]", "result": "significantly increased"}]}, {"compound": "CC(C)=CCC[C@](C)(O)[C@H]1CC[C@]2(C)C1[C@H](O)C[C@@H]1[C@@]3(C)CC[C@H](O)C(C)(C)[C@@H]3[C@@H](O[C@@H]3O[C@H](CO)[C@@H](O)[C@H](O)[C@H]3O)C[C@]12C", "note": "(stereo partly shown) [Rh1, ginsenoside Rh1]", "values": [{"measurement": "Mobility rate (%), average value", "setting": "[2]", "result": 99, "unit": "%"}, {"measurement": "Tube length (%), average value", "setting": "HUVEC", "result": 15, "unit": "%"}]}, {"compound": "CC(C)=CCC[C@](C)(O)[C@H]1CC[C@]2(C)[C@@H]1[C@H](O)C[C@@H]1[C@@]3(C)CC[C@H](O[C@@H]4O[C@H](CO)[C@@H](O)[C@H](O)[C@H]4O)C(C)(C)[C@@H]3CC[C@]12C", "note": "[Rh2, ginsenoside Rh2]", "values": [{"measurement": "cell mobility rate compared to the irradiated group", "setting": "HCT116 [3]", "result": "highest cell mobility recovery rate"}, {"measurement": "cell viability compared to the irradiated group", "setting": "HCT116 [4]; 50 μM", "result": "lower cell viabilities than the irradiated group"}, {"measurement": "cell viability compared to the irradiated group", "setting": "SNU-C1 [5]; 50 μM", "result": "lower cell viabilities than the irradiated group"}]}, {"compound": "CC1(C)CC[C@]2(C(=O)O[C@@H]3O[C@H](CO)[C@@H](O)[C@H](O)[C@H]3O)CC[C@]3(C)C(=CC[C@@H]4[C@@]5(C)CC[C@H](O[C@@H]6O[C@H](C(=O)O)[C@@H](O)[C@H](O)[C@H]6O[C@@H]6O[C@H](CO)[C@@H](O)[C@H](O)[C@H]6O)C(C)(C)[C@@H]5CC[C@]43C)[C@@H]2C1", "note": "[Ro, ginsenoside Ro]", "values": [{"measurement": "cell viability compared to the irradiated group", "setting": "HCT116 [4]; 5 μM", "result": "lower cell viabilities than the irradiated group"}, {"measurement": "cell viability compared to the irradiated group", "setting": "SNU-C1 [5]; 5 μM", "result": "lower cell viabilities than the irradiated group"}]}, {"compound": "CCCC(=O)O", "note": "[butyric acid, Butyric acid]", "values": [{"measurement": "Mobility rate (%), average value", "setting": "[2]", "result": 76, "unit": "%"}, {"measurement": "Tube length (%), average value", "setting": "HUVEC", "result": 14, "unit": "%"}, {"measurement": "cell mobility rate compared to the irradiated group", "setting": "HCT116 [3]", "result": "double increase"}]}, {"compound": "COc1cc(/C=C/C(=O)CC(=O)/C=C/c2ccc(O)c(OC)c2)ccc1O", "note": "[curcumin]", "values": [{"measurement": "Mobility rate (%), average value", "setting": "[2]", "result": 130, "unit": "%"}, {"measurement": "Tube length (%), average value", "setting": "HUVEC", "result": 15, "unit": "%"}, {"measurement": "skin damage", "setting": "skin of irradiated mice; irradiated mice", "result": "restoring skin damage"}, {"measurement": "expression of inflammatory cytokines and fibrogenic cytokines", "setting": "skin of irradiated mice; skin of irradiated mice", "result": "reducing the expression"}, {"measurement": "cell mobility rate compared to the irradiated group", "setting": "HCT116 [3]", "result": "double increase"}, {"measurement": "cell viability decreased by irradiation", "setting": "HCT116 [4]; [8]", "result": "significantly increased"}, {"measurement": "cell viability compared to the irradiated group", "setting": "HCT116 [4]; 50 μM", "result": "lower cell viabilities than the irradiated group"}, {"measurement": "cell viability decreased by irradiation", "setting": "SNU-C1 [5]; [8]", "result": "significantly increased"}, {"measurement": "cell viability compared to the irradiated group", "setting": "SNU-C1 [5]; 50 μM", "result": "lower cell viabilities than the irradiated group"}, {"measurement": "cell mobility rate compared to the irradiated group", "setting": "SNU-C1 [1]", "result": "significantly increased"}]}, {"compound": "CC(C)=CCC[C@](C)(O[C@@H]1O[C@H](CO)[C@@H](O)[C@H](O)[C@H]1O)[C@H]1CC[C@]2(C)[C@@H]1[C@H](O)C[C@@H]1[C@@]3(C)CC[C@H](O[C@@H]4O[C@H](CO)[C@@H](O)[C@H](O)[C@H]4O[C@@H]4O[C@H](CO)[C@@H](O)[C@H](O)[C@H]4O)C(C)(C)[C@@H]3CC[C@]12C", "note": "[ginsenoside Rd]", "values": [{"measurement": "apoptosis induced by irradiation", "setting": "[6]", "result": "inhibit apoptosis"}]}, {"compound": "Sucralfate [reference compound]", "values": [{"measurement": "Mobility rate (%), average value", "setting": "[2]", "result": 91, "unit": "%"}, {"measurement": "epithelium loss and crypt damage induced by irradiation", "setting": "[7]", "result": "recovered in all sample treatment groups except the sucralfate treatment group"}, {"measurement": "Tube length (%), average value", "setting": "HUVEC", "result": 14, "unit": "%"}]}]}
